The test system of one data set is ALAS1 target site. The experiment in a line: In vivo base editing with ABE mRNA and sgRNA targeting ALAS1. Further details: species or system Balb/c mice. The following applies: for Quadrecept Editing A->G (%): dose 3 MPK IV.
Data set [1] can be described thus: LNP preparation characterization (encapsulation efficiency, DLS size and polydispersity), barcoded screen LNPs. The following applies: LNP 47.5% ionizable lipid: 40% cholesterol: 2.5% PEG-2000 DMG: 10% DPSC, N/P 4.5-6; for AVG PDI / AVG Z Dia (nm): DLS. It is filed as physicochemical.
Data set [2] in a line: LNP characterization of base editor LNP preparations (DLS diameter, PDI, encapsulation efficiency). It is filed as physicochemical. The procedure, abridged: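 Lipid mix in ethanol and base-editor mRNA plus modified sgRNA (1:1 by mass, pH 4.0 citrate) were microfluidically mixed at 3:1 aqueous:organic, lipid:NA molar ratio 6, then dialysed against PBS at 4° C for 8–24 h. Diameter and PDI were measured by DLS in PBS; encapsulation was derived from unlysed versus lysed LNPs by Qubit RNA quantitation.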

A further data set deals with PCSK9 target site. The experiment in a line: In vivo base editing with ABE mRNA and sgRNA targeting PCSK9. Also on record: species or system Balb/c mice. The following applies: dose 0.03 MPK (mg total RNA/kg) IV, formulation ratio 47.5:40:2.5:10, liver, 4 days after dosing. The method, then: Lipid nanoparticle components are dissolved in 100% ethanol at specified lipid component molar ratios. mRNA encoding an adenine base editor and a chemically-modified sgRNA is dissolved at a mass ratio of 1:1 in 10 mM citrate, 100 mM NaCl, pH 4.0, resulting in a concentration of NA cargo of approximately 0.22 mg/mL. LNP preparations are formulated with molar ratios of either 50% Ionizable Lipid: 38.5% Cholesterol: 1.5% PEG2000-DMG: 10% DSPC or 47.5% Ionizable Lipid: 40% Cholesterol: 2.5% PEG2000-DMG: 10% DSPC both at a total lipid to NA molar ratio of 6.
LNP preparations are formed by microfluidic mixing of the lipid and NA solutions using a Precision Nanosystems NanoAssemblr Ignite Instrument, according to the manufacturer's protocol. A 3:1 ratio of aqueous to organic solvent is maintained during mixing using differential flow rates. After mixing, LNP preparations are collected, diluted in PBS (approximately 2:1 v/v), and further buffer exchange is conducted using dialysis in PBS at 4° C. for 8 to 24 hours against a 20 kDa filter. After this initial dialysis, each individual LNP preparation is characterized via dynamic light scattering (DLS) to measure size and polydispersity. pKa of a subpopulation of LNP preparations is measured via TNS assay. After dialysis, LNP preparations are sterile filtered using 0.22 micron sterile filter and stored at 4° C. for further use. In some embodiments, LNP preparations may be concentrated using 100 kDa Amicon filters per manufacturer's protocol.
Male Balb/C mice aged approximately 8-12 weeks are used in the experiments described herein. Each mouse is temporarily restrained, and LNP preparations are administered IV via tail vein injection. Age-matched mice are also used to administer vehicle (1×PBS) via tail vein injection as a control. Four to six days post-dose, tissues including liver, spleen, heart and muscle are collected (only liver and muscle (quardracept) are reported). Genomic DNA is isolated and fragmented and adapter-ligated using the Nextera DNA Flex Library Prep Kit (Illumina) using the 96-well plate Nextera indexing primers (Illumina), according to the manufacturer's instructions. Library size and concentration is confirmed by Fragment Analyzer (Agilent) and sent to Novogene for whole genome sequencing using an Illumina HiSeq.
For base editing, mRNA encoding an adenine base editor (ABE) and a guide RNA (sgRNA) targeting PCSK9 at 1:1 (mass ratio) are coencapsulated in LNP preparations as described herein. LNP preparations are administrated into Balb/c mice through tail vein injections at concentration of 0.03 mg total RNA/kg. […] Base editing is determined by performing targeted deep sequencing analysis at the PCSK9 target site using extracted genomic DNA.

The mark [3] stands for this setting: Table C LNPs, formulation ratio 47.5:40:2.5:10, ABE mRNA/ALAS1 sgRNA.
Setting [4] is: Table D LNPs, formulation ratio 50:38.5:1.5:10, ABE mRNA/ALAS1 sgRNA.
The mark [5] stands for this setting: Table E LNPs, formulation ratio 47.5:40:2.5:10, ABE mRNA/PCSK9 sgRNA.

The structures appear in SMILES notation. Several values for one entry are separate records, joined by “and”; a condition that tells them apart may be missing. Equal values may be shown once.

Take `C=CCCCCCC(CCCCCC=C)OC(=O)CCCCCC(=O)OCC(COC(=O)CCCCCC(=O)OC(CCCCCC=C)CCCCCC=C)COC(=O)NCCN1CCCC1` [Compound (26), O1-[2-[[7-(1-hept-6-enyloct-7-enoxy)-7-oxo-heptanoyl]oxymethyl]-3-(2-pyrrolidin-1-ylethylcarbamoyloxy)propyl] O7-(1-hept-6-enyloct-7-enyl) heptanedioate]: the “Liver Editing A->G (%)” value in the data set with ALAS1 target site (dose 0.05 MPK IV, formulation ratio 50:38.5:1.5:10, liver, 4 days after dosing) stood at 0.41%. Also, the “Quadrecept Editing A->G (%)” value with ALAS1 target site (formulation ratio 47.5:40:2.5:10, quadricep muscle) is recorded as 7.26%. Further, in data set [1], the “AVG EE(%)” value is 93.4%, the “AVG PDI” value was 0.08 and the “AVG Z Dia (nm)” value turned out to be 82.14 nm. For the same compound, in data set [2] (setting [3]), the “Diameter (nm)” value is 75.47 nm and 81.14 nm; the “EE (%)” value was 99.1% and 99%; the “PDI (%)” value was 1.2% and 9.4%. In addition, in data set [2] (setting [4]), the “Diameter (nm)” value is 79.5 nm, the “EE (%)” value stood at 98.3% and the “PDI (%)” value was found to be 22.3%.
In the case of `CC/C=C\CCCC(CCC/C=C\CC)OC(=O)CCCCCC(=O)OCC(COC(=O)CCCCCC(=O)OC(CCC/C=C\CC)CCC/C=C\CC)COC(=O)OCCCN(CC)CC` [Compound (29), O1-[2-[3-(diethylamino)propoxycarbonyloxymethyl]-3-[7-[(Z)-1-[(Z)-hept-4-enyl]oct-5-enoxy]-7-oxo-heptanoyl]oxy-propyl] O7-[(Z)-1-[(Z)-hept-4-enyl]oct-5-enyl] heptanedioate], the “Liver Editing A->G (%)” value in the data set with PCSK9 target site was found to be 7.53%. For the same compound, in data set [2] (setting [5]), the “Diameter (nm)” value is 65.7 nm, the “EE (%)” value is 96.55% and the “PDI (%)” value turned out to be 11.9%.
With `CC/C=C\CCCC(CCC/C=C\CC)OC(=O)CCCCCC(=O)OCC(COC(=O)CCCCCC(=O)OC(CCC/C=C\CC)CCC/C=C\CC)COC(=O)OCCCN1CCCC1` [Compound (30), 1-[3-({7-Oxo-7-[(3Z,12Z)-pentadeca-3,12-dien-8-yloxy]heptanoyl}oxy)-2-[({[3-(pyrrolidin-1-yl)propoxy]carbonyl}oxy)methyl]propyl] 7-(3Z,12Z)-pentadeca-3,12-dien-8-yl heptanedioate], the “Liver Editing A->G (%)” value in the data set on PCSK9 target site is reported as 1.53%. Also, in data set [2] (setting [5]), the “Diameter (nm)” value worked out at 67.06 nm and the “EE (%)” value is given as 97.15%.
In the case of `CC/C=C\CCCC(CCC/C=C\CC)OC(=O)CCCCCC(=O)OCC(COC(=O)CCCCCC(=O)OC(CCC/C=C\CC)CCC/C=C\CC)COC(=O)NCCN1CCN(C)CC1` [Compound (31), 01-[2-[[7-[(Z)-1-[(Z)-hept-4-enyl]oct-5-enoxy]-7-oxo-heptanoyl]oxymethyl]-3-[2-(4-methylpiperazin-1-yl)ethylcarbamoyloxy]propyl] O7-[(Z)-1-[(Z)-hept-4-enyl]oct-5-enyl] heptanedioate], the “Liver Editing A->G (%)” value in the data set on PCSK9 target site came out at 0.02%. In addition, in data set [2] (setting [5]), the “Diameter (nm)” value was 103.5 nm and the “EE (%)” value is 93.42%.
As for `CC/C=C\CCCC(CCC/C=C\CC)OC(=O)CCCCCC(=O)OCC(COC(=O)CCCCCC(=O)OC(CCC/C=C\CC)CCC/C=C\CC)COC(=O)NCCCn1ccnc1` [Compound (32), 1-{2-[({[3-(1H-imidazol-1-yl)propyl]carbamoyl}oxy)methyl]-3-({7-oxo-7-[(3Z,12Z)-pentadeca-3,12-dien-8-yloxy]heptanoyl}oxy)propyl} 7-(3Z,12Z)-pentadeca-3,12-dien-8-yl heptanedioate], in the data set on PCSK9 target site, the “Liver Editing A->G (%)” value is recorded as 0.06%. For the same compound, in data set [2] (setting [5]), the “Diameter (nm)” value came out at 81.94 nm and the “EE (%)” value was 87.5%.
For `C=CCCCC(CCCC=C)OC(=O)CCCCC(=O)OCC(COC(=O)CCCCC(=O)OC(CCCC=C)CCCC=C)COC(=O)CCCN1CCCC1` [Compound (33), 1-[2-({[6-Oxo-6-(undeca-1,10-dien-6-yloxy)hexanoyl]oxy}methyl)-3-{[4-(pyrrolidin-1-yl)butanoyl]oxy}propyl] 6-undeca-1,10-dien-6-yl hexanedioate], the “Quadrecept Editing A->G (%)” value with ALAS1 target site (formulation ratio 50:38.5:1.5:10, quadricep muscle) was found to be 0.1%. In addition, in data set [1], the “AVG EE(%)” value is given as 98.3%, the “AVG PDI” value was 0.10 and the “AVG Z Dia (nm)” value is on record as 133.71 nm. Moreover, in data set [2] (setting [4]), the “Diameter (nm)” value was 179.7 nm, the “EE (%)” value is 75.69% and the “PDI (%)” value stood at 23.4%.
